This note sets out measurements from patent publication US9131694B2, “Insecticidal pyridine compounds” (Dow AgroSciences, LLC, priority 2009, dated 2015).

Assay [1] deals with Green Peach Aphid (Myzus persicae). As to the kind of experiment: Insecticidal test for green peach aphid in foliar spray assay on cabbage seedlings. The class given is in vivo. To be noted: 200 ppm foliar spray on infested cabbage seedlings, graded after three days. On the procedure:
Insecticidal Test for Green Peach Aphid (Myzus persicae) in Foliar Spray Assay Cabbage seedlings grown in 3-inch pots, with 2-3 small (3-5 cm) true leaves, were used as test substrate. The seedlings were infested with 20-50 green peach aphids (wingless adult and nymph) 1-2 days prior to chemical application. Four seedlings were used for each treatment. Selected compounds (2 mg), many of which are described above, were dissolved in 2 ml of acetone:methanol (1:1) solvent, forming stock solutions of 1000 ppm. The stock solutions were diluted 5× with 0.025% Tween 20 in H2O to obtain a solution at 200 ppm. A hand-held Devilbiss aspirator sprayer was used for spraying a solution to both sides of cabbage leaves until runoff. Reference plants (solvent check) were sprayed with the diluent only. Treated plants were held in a holding room for three days at approximately 23° C. and 40% relative humidity prior to grading. Evaluation was conducted by counting the number of live aphids per plant under a microscope. Insecticidal activity was measured by using Abbott's correction formula: Corrected % Control=100*(X−Y)/X • where • X=No. of live aphids on solvent check plants • Y=No. of live aphids on treated plants The results of this test are set forth in the column labelled “Green Peach Aphid” in Table 1 below, in which letter designations represent ranges of percent control as follows: • A=80-100% control • B=60-79% control • C=40-59% control • D=20-39% control • E=0-19% control

The subject of assay [2] is Beet Armyworm (Spodoptera exigua). Nature of the assay: Insecticidal test for beet armyworm, treated lepidopteran diet. The assay is classed as in vivo. To be noted: 2000 ppm test solution, 50 μL per well on diet (50 g/cm^2 dose), second-instar larvae, observed 2 and 5 days after treatment. The procedure: Insecticidal Test for Beet Armyworm (Spodoptera exigua). To prepare test solution, the test compound was formulated at 2000 ppm solution in 2 mL of 9 acetone: 1 tap water. 50 μL of the test solution ([…] dose for each well) was pipetted upon the surface of 1 mL of lepidopteran diet (Southland Multi-Species Lepidopteran Diet) contained in each of eight wells per insect species (one well=1 replication). A second-instar beet armyworm was placed upon the treated diet in each well (one insect per well) once the solvent had air-dried. Trays containing the treated diet and larvae were covered and then held in a growth chamber at 25° C., 50-55% RH, and 16 hr light:8 hr dark for 5 days. Observation were conducted 2 and 5 days after treatment and infestation to score the number of dead insects per 8-well treatment. The results of this test are set forth in the column labelled “Beet Armyworm” in Table 1 below, in which letter designations represent ranges of percent control as set forth above.

As to `FC(F)(F)c1cc(-n2c(-c3ccccn3)nc3ccccc32)nc(Cl)c1Cl`, the “Green Peach Aphid percent control (Abbott corrected % control)” value in assay [1] is “D (D=20-39% control)”. For the same compound, the “Beet Armyworm percent control” value in assay [2] is listed as “D (D=20-39% control)”.
With `FC(F)(F)c1cc(N2CCCC2c2ccccn2)nc(Cl)c1Br` (stereo not drawn), the “Green Peach Aphid percent control (Abbott corrected % control)” value in assay [1] is given as “D (D=20-39% control)”. The “Beet Armyworm percent control” value in assay [2] is given as “E (E=0-19% control)”.
With `FC(F)(F)c1cc(N2CCCC2c2ccccn2)ncc1Cl` (stereo not drawn), in assay [1], the “Green Peach Aphid percent control (Abbott corrected % control)” value is on record as “E (E=0-19% control)”. In addition, the “Beet Armyworm percent control” value in assay [2] was “D (D=20-39% control)”.
With `FC(F)(F)c1c(Cl)cnc(N2CCCC2c2ccccn2)c1Cl` (stereo not drawn), the “Green Peach Aphid percent control (Abbott corrected % control)” value in assay [1] is given as “E (E=0-19% control)”. The “Beet Armyworm percent control” value in assay [2] is on record as “B (B=60-79% control)”.
With `FC(F)(F)c1cc(N2CCCC2c2ccccn2)nc(Cl)c1Cl` (stereo not drawn) [Compound 1, 6-[2-(2-Pyridyl)-1-pyrrolidinyl]-4-trifluoromethyl-2,3-dichloropyridine], the “Green Peach Aphid percent control (Abbott corrected % control)” value in assay [1] was “A (A=80-100% control)”. In addition, the “Beet Armyworm percent control” value in assay [2] is “B (B=60-79% control)”.
Consider `FC(F)(F)c1cc(Cl)nc(N2CCCC2c2ccccn2)c1Cl` (stereo not drawn) [Compound 2, 6-[2-(2-pyridyl)-1-pyrrolidinyl]-4-trifluoromethyl-2,5-dichloropyridine], for which the “Green Peach Aphid percent control (Abbott corrected % control)” value in assay [1] was “C (C=40-59% control)”. For the same compound, the “Beet Armyworm percent control” value in assay [2] is reported as “B (B=60-79% control)”.
Take `FC(F)(F)c1cc(N2CCCCC2c2ccccn2)nc(Cl)c1Cl` (stereo not drawn) [Compound 6]: the “Green Peach Aphid percent control (Abbott corrected % control)” value in assay [1] was “D (D=20-39% control)”. Besides, the “Beet Armyworm percent control” value in assay [2] is recorded as “A (A=80-100% control)”.
In the case of `C[Si](C)(C)c1c(C(F)(F)F)cc(N2CCCC2c2ccccn2)nc1Cl` (stereo not drawn) [Compound 10], the “Green Peach Aphid percent control (Abbott corrected % control)” value in assay [1] is given as “E (E=0-19% control)”. The “Beet Armyworm percent control” value in assay [2] is “E (E=0-19% control)”.
For `CC(C)C1COC(c2ccccn2)N1c1cc(C(F)(F)F)c(C#N)c(Cl)n1` (stereo not drawn) [Compound 12, 2-chloro-6-[4-isopropyl-2-(2-pyridyl)oxazolidin-3-yl]-4-(trifluoromethyl)pyridine-3-carbonitrile], in assay [1], the “Green Peach Aphid percent control (Abbott corrected % control)” value was “D (D=20-39% control)”. Besides, the “Beet Armyworm percent control” value in assay [2] is listed as “E (E=0-19% control)”.
For `CC1COC(c2ccccn2)N1c1cc(C(F)(F)F)c(C#N)c(Cl)n1` (stereo not drawn) [Compound 16, 2-chloro-6-[4-methyl-2-(2-pyridyl)oxazolidin-3-yl]-4-(trifluoromethyl)pyridine-3-carbonitrile], the “Green Peach Aphid percent control (Abbott corrected % control)” value in assay [1] is “E (E=0-19% control)”. Also, the “Beet Armyworm percent control” value in assay [2] is given as “E (E=0-19% control)”.
As for `N#Cc1c(C(F)(F)F)cc(N2C(c3ccccc3)COC2c2ccccn2)nc1Cl` (stereo not drawn) [Compound 18, 2-chloro-6-[4-phenyl-2-(2-pyridyl)oxazolidin-3-yl]-4-(trifluoromethyl)pyridine-3-carbonitrile], the “Green Peach Aphid percent control (Abbott corrected % control)” value in assay [1] is “E (E=0-19% control)”. The “Beet Armyworm percent control” value in assay [2] is “E (E=0-19% control)”.
Consider `CCC1CN(c2cc(C(F)(F)F)c(C#N)c(Cl)n2)C(c2ccccn2)O1` (stereo not drawn) [Compound 19, 2-Chloro-6-[5-ethyl-2-(2-pyridyl)oxazolidin-3-yl]-4-(trifluoromethyl)pyridine-3-carbonitrile], for which the “Green Peach Aphid percent control (Abbott corrected % control)” value in assay [1] is reported as “C (C=40-59% control)”. Moreover, the “Beet Armyworm percent control” value in assay [2] is given as “C (C=40-59% control)”.
